These results are taken from ChEMBL document CHEMBL2203001, “Flavonoid glycosides from the leaves of Allium victorialis var. platyphyllum and their anti-neuroinflammatory effects” (Bioorg Med Chem Lett, 2012).

Series [1] can be described thus: Cytotoxicity against mouse BV2 cells assessed as cell viability at 20 uM by MTT assay relative to LPS-treated cells. Format: cell-based, BV-2. As to conditions: read-out: Activity. Background: Tetrazolium assays rely on reduction of a dye to a coloured formazan, in cell work by metabolically active cells.
Another series deals with BV-2. Description: Antineuroinflammatory activity against mouse BV2 cells assessed as inhibition of LPS-induced nitric oxide production after 24 hrs by Griess method. Format: functional, cell-based. As to conditions: BV-2, 24 h. For orientation: Griess reagent forms a coloured azo dye with nitrite.

One may read the IC50 as the concentration at which inhibition is half-maximal. Turning to `O=c1c(O[C@@H]2O[C@H](CO)[C@@H](O)[C@H](O)[C@H]2O)c(-c2ccc(O[C@@H]3O[C@H](CO)[C@@H](O)[C@H](O)[C@H]3O)c(O)c2)oc2cc(O)cc(O)c12`, the viability at 20 µM in series [1] was 100%. Also, the IC50 in the series with BV-2 came out at 45.5 µM.

Take `COc1cc(/C=C/C(=O)O[C@H]2[C@H](Oc3cc(O)c4c(=O)c(O[C@@H]5O[C@H](CO)[C@@H](O)[C@H](O)[C@H]5O)c(-c5ccc(O)cc5)oc4c3)O[C@H](CO)[C@@H](O)[C@@H]2O)ccc1O`: in series [1], the viability at 20 µM is 106%. Moreover, the IC50 with BV-2 came to 21.5 µM.

On to `O=c1c(O[C@@H]2O[C@H](CO)[C@@H](O)[C@H](O)[C@H]2O)c(-c2ccc(O[C@@H]3O[C@H](CO)[C@@H](O)[C@H](O)[C@H]3O)cc2)oc2cc(O[C@@H]3O[C@H](CO)[C@@H](O)[C@H](O)[C@H]3O)cc(O)c12`, for which, in series [1], the viability at 20 µM was 102%. The IC50 with BV-2 came to 33 µM.

On to `COc1cc(/C=C/C(=O)O[C@H]2[C@H](Oc3c(-c4ccc(O[C@@H]5O[C@H](CO)[C@@H](O)[C@H](O)[C@H]5O)cc4)oc4cc(O[C@@H]5O[C@H](CO)[C@@H](O)[C@H](O)[C@H]5O)cc(O)c4c3=O)O[C@H](CO)[C@@H](O)[C@@H]2O)ccc1O`, for which the viability at 20 µM in series [1] amounted to 101%. Besides, in the series with BV-2, the IC50 turned out to be 43.4 µM.

Regarding `O=c1c(O[C@@H]2O[C@H](CO)[C@@H](O)[C@H](O)[C@H]2O)c(-c2ccc(O[C@@H]3O[C@H](CO)[C@@H](O)[C@H](O)[C@H]3O)cc2)oc2cc(O)cc(O)c12`, the viability at 20 µM in series [1] turned out to be 99.1%. Further, in the series with BV-2, the IC50 worked out at 170 µM.

As for `O=c1c(O[C@@H]2O[C@H](CO)[C@@H](O)[C@H](O)[C@H]2O)c(-c2ccc(O)cc2)oc2cc(O[C@@H]3O[C@H](CO)[C@@H](O)[C@H](O)[C@H]3O)cc(O)c12`, the viability at 20 µM in series [1] is 106%. Moreover, the IC50 in the series on BV-2 is 28.9 µM.

As to `O=c1c(O)c(-c2ccc(O[C@@H]3O[C@H](CO)[C@@H](O)[C@H](O)[C@H]3O)c(O)c2)oc2cc(O[C@@H]3O[C@H](CO)[C@@H](O)[C@H](O)[C@H]3O)cc(O)c12`, the viability at 20 µM in series [1] stood at 105%. In the series with BV-2, the IC50 was 51.7 µM.

On to `O=C(/C=C/c1ccc(O)cc1)O[C@H]1[C@H](Oc2c(-c3ccc(O)cc3)oc3cc(O[C@@H]4O[C@H](CO)[C@@H](O)[C@H](O)[C@H]4O)cc(O)c3c2=O)O[C@H](CO)[C@@H](O)[C@@H]1O`, for which the viability at 20 µM in series [1] is 105%. Besides, the IC50 in the series on BV-2 was determined as 47.2 µM.

On to `O=c1c(O)c(-c2ccc(O)cc2)oc2cc(O[C@@H]3O[C@H](CO)[C@@H](O)[C@H](O)[C@H]3O)cc(O)c12`, for which, in series [1], the viability at 20 µM was determined as 107%. In addition, the IC50 with BV-2 was 39.1 µM.

As to `O=C(/C=C/c1ccc(O)cc1)O[C@H]1[C@H](Oc2c(-c3ccc(O[C@@H]4O[C@H](CO)[C@@H](O)[C@H](O)[C@H]4O)cc3)oc3cc(O)cc(O)c3c2=O)O[C@H](CO)[C@@H](O)[C@@H]1O` [ALLIVICTOSIDE A], the viability at 20 µM in series [1] turned out to be 109%. Moreover, the IC50 with BV-2 turned out to be 55.6 µM.

Consider `COc1cc(/C=C/C(=O)O[C@H]2[C@H](Oc3c(-c4ccc(O[C@@H]5O[C@H](CO)[C@@H](O)[C@H](O)[C@H]5O)cc4)oc4cc(O)cc(O)c4c3=O)O[C@H](CO)[C@@H](O)[C@@H]2O)ccc1O` [ALLIVICTOSIDE B], for which the viability at 20 µM in series [1] stood at 107%. Further, the IC50 with BV-2 is 20.7 µM.

For `O=C(/C=C/c1ccc(O)cc1)O[C@H]1[C@H](Oc2c(-c3ccc(O[C@@H]4O[C@H](CO)[C@@H](O)[C@H](O)[C@H]4O)cc3)oc3cc(O[C@@H]4O[C@H](CO)[C@@H](O)[C@H](O)[C@H]4O)cc(O)c3c2=O)O[C@H](CO)[C@@H](O)[C@@H]1O` [ALLIVICTOSIDE C], the viability at 20 µM in series [1] was found to be 104%. Further, the IC50 in the series on BV-2 was found to be 44 µM.

`O=C(/C=C\c1ccc(O)cc1)O[C@H]1[C@H](Oc2c(-c3ccc(O[C@@H]4O[C@H](CO)[C@@H](O)[C@H](O)[C@H]4O)cc3)oc3cc(O[C@@H]4O[C@H](CO)[C@@H](O)[C@H](O)[C@H]4O)cc(O)c3c2=O)O[C@H](CO)[C@@H](O)[C@@H]1O` [ALLIVICTOSIDE D]: the viability at 20 µM in series [1] was 100%. For the same compound, the IC50 with BV-2 was 48.5 µM.

Consider `O=C(/C=C/c1ccc(O)cc1)O[C@@H]1[C@@H](O)[C@H](Oc2c(-c3ccc(O[C@@H]4O[C@H](CO)[C@@H](O)[C@H](O)[C@H]4O)cc3)oc3cc(O[C@@H]4O[C@H](CO)[C@@H](O)[C@H](O)[C@H]4O)cc(O)c3c2=O)O[C@H](CO)[C@H]1O` [ALLIVICTOSIDE E], for which the viability at 20 µM in series [1] was found to be 104%. Further, in the series with BV-2, the IC50 was 49.5 µM.

As to `COc1cc(/C=C/C(=O)O[C@H]2[C@H](Oc3c(-c4ccc(O)cc4)oc4cc(O[C@@H]5O[C@H](CO)[C@@H](O)[C@H](O)[C@H]5O)cc(O)c4c3=O)O[C@H](CO)[C@@H](O)[C@@H]2O)ccc1O` [ALLIVICTOSIDE F], the viability at 20 µM in series [1] was determined as 100%. For the same compound, the IC50 in the series with BV-2 was 20.4 µM.

Turning to `O=C(/C=C/c1ccc(O)cc1)O[C@H]1[C@H](Oc2c(-c3ccc(O[C@H]4O[C@@H](CO)[C@H](O)[C@@H](O)[C@@H]4O)c(O)c3)oc3cc(O)cc(O)c3c2=O)O[C@H](CO)[C@@H](O)[C@@H]1O` [ALLIVICTOSIDE G], in series [1], the viability at 20 µM is 101%. Besides, the IC50 with BV-2 is over 200 µM.

In the case of `COc1cc(/C=C/C(=O)O[C@H]2[C@H](Oc3c(-c4ccc(O[C@H]5O[C@@H](CO)[C@H](O)[C@@H](O)[C@@H]5O)c(O)c4)oc4cc(O[C@@H]5O[C@H](CO)[C@@H](O)[C@H](O)[C@H]5O)cc(O)c4c3=O)O[C@H](CO)[C@@H](O)[C@@H]2O)ccc1O` [ALLIVICTOSIDE H], in series [1], the viability at 20 µM stood at 105%. The IC50 with BV-2 came out at 29.9 µM.

With `O=c1c(O[C@@H]2O[C@H](CO)[C@@H](O)[C@H](O)[C@H]2O)c(-c2ccc(O)cc2)oc2cc(O)cc(O)c12` [ASTRAGALIN], the viability at 20 µM in series [1] is 106%. Besides, the IC50 in the series with BV-2 stood at 77.4 µM.

Regarding `O=c1c(O[C@@H]2O[C@H](CO)[C@@H](O)[C@H](O)[C@H]2O)c(-c2ccc(O)c(O)c2)oc2cc(O)cc(O)c12` [ISOQUERCETIN], the viability at 20 µM in series [1] was 97.3%. The IC50 with BV-2 stood at 19.8 µM.

For `C[C@@H]1O[C@@H](OC[C@H]2O[C@@H](Oc3c(-c4ccc(O)cc4)oc4cc(O)cc(O)c4c3=O)[C@H](O)[C@@H](O)[C@@H]2O)[C@H](O)[C@H](O)[C@H]1O` [NICOTIFLOROSIDE], the viability at 20 µM in series [1] was determined as 104%. Moreover, in the series on BV-2, the IC50 worked out at 122 µM.

As to `CNC(=N)NCCC[C@H](N)C(=O)O` [TILARGININE], the viability at 20 µM in series [1] was found to be 98.2%. In addition, the IC50 in the series on BV-2 came out at 16.3 µM.
